The values below come from BindingDB's records for patent US12065430 (Taiho Pharmaceutical, 2024).

This assay concerns the target T1, Son of sevenless homolog 1 [564-1049]/GTPase KRas [G12C] (UniProt P01116+Q07889, G12C).
T1 construct: 564-1049
In words: Evaluation of Inhibitory Activity of Compounds on KRAS G12C Nucleotide (GDP-GTP) Exchange Reaction. As for the experimental part: The inhibitory activity of compounds on exchange reaction of GDP into GppNHp in Bodipy (trademark) FL-bound KRAS G12C was examined by fluorescence measurement using human recombinant KRAS G12C and SOS1 proteins.For the preparation of KRAS G12C to which Bodipy FL GDP was bound, first, […] KRAS G12C (amino acid region: 1-169) and 1 mM Bodipy FL GDP (Invitrogen, G22360) were incubated for 1 hour in a buffer (20 mM Tris-HCl (pH 7.5), 50 mM NaCl, 1 mM DTT) in ice in the presence of 2.5 mM EDTA. Thereafter, MgCl2 with a final concentration of 10 mM was added, and the mixture was incubated at room temperature for 30 minutes. The protein was allowed to pass through a NAP-5 column to remove free nucleotides and was used for compound evaluation.For the measurement of the inhibitory activity of compounds on nucleotide exchange reaction, first, the compound of the present invention was diluted stepwise with dimethyl sulfoxide (DMSO). Subsequently, a solution of the gradually diluted compound of the present invention in DMSO (the final concentration of DMSO: 5%) and KRAS G12C (25 nM) bound to Bodipy FL GDP were added to a reaction buffer (20 mM Tris-HCl (pH 7.5), 100 mM NaCl, 1 mM MgCl2, 2 mM DTT, 0.1% Tween20), followed by preincubation at 25° C. for 4 hours. Thereafter, Son of Sevenless Homolog 1 (SOS1, amino acid region: 564-1049) and GppNHp (GMPPNP, Jena Bioscience GmbH, NU-401-50) were added such that their final concentration was 100 nM and 1 μM respectively, followed by reaction for 30 minutes. The change in fluorescence intensity of Bodipy FL (excitation wavelength: 485 nm, fluorescence wavelength: 520 nm) immediately after the start of reaction and after 30 minutes from the start of reaction was standardized. The signal value for only DMSO was determined to be 0% inhibition, and the signal value for no addition of GppNHp was determined to be 100% inhibition. The compound concentration at which 50% inhibition is achieved was determined to be IC50 (nM), and was calculated.

pIC50: −log10 of the molar value.

T1 sequence (P01116 whole entry G12C): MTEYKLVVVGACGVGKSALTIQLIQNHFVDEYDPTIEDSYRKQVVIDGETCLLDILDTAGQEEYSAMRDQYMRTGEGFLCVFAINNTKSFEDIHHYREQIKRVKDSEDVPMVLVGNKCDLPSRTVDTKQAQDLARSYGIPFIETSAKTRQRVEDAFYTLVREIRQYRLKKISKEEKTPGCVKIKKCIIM
T1 sequence (Q07889 564-1049): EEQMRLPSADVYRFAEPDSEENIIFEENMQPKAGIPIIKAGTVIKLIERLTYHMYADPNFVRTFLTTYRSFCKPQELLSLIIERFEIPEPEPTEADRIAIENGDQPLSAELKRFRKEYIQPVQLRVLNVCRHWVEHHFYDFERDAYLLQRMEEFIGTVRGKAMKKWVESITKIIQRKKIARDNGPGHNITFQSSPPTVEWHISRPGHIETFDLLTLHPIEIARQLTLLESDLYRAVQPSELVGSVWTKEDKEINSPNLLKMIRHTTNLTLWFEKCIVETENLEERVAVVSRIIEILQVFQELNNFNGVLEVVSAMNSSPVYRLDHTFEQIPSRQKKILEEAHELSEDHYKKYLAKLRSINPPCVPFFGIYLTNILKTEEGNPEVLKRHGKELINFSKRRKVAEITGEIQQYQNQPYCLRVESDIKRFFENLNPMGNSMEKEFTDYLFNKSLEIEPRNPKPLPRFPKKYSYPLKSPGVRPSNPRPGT

With `C=CC(=O)N1C[C@@H](CF)[C@@H](NC(=O)c2c(C)nc(CNc3n[nH]c4cc(Cl)c(C(C)(C)C)cc34)n2C)C1` [US12065430, Example 66], the pIC50 (as a rule, −log10 of the IC50, conventionally taken in molar units) is 7.70.

Consider `C=CC(=O)N1C[C@@H](COC)[C@@H](NC(=O)c2c(C)nc(CNc3n[nH]c4cc(Cl)c(C(C)(C)C)cc34)n2C)C1` [US12065430, Example 67], for which the pIC50 was 7.62.

For the molecule `C=CC(=O)N1C[C@@H](CN(C)C)[C@@H](NC(=O)c2c(C)nc(CNc3n[nH]c4cc(Cl)c(C(C)(C)C)cc34)n2C)C1` [US12065430, Example 68], the pIC50 is 7.00.

For the molecule `C=CC(=O)N1CC[C@@H](NC(=O)c2c(Cl)nc(CNc3n[nH]c4cc(Cl)c(C(C)(C)C)cc34)n2C)C1` [US12065430, Example 73], the pIC50 was 7.28.

As to `C=CC(=O)N1C[C@@H](C)[C@@H](NC(=O)c2c(F)nc(CNc3n[nH]c4cc(Cl)c(C(C)(C)C)cc34)n2C)C1` [US12065430, Example 74], the pIC50 is 7.44.

`C=CC(=O)N1C[C@H](NC(=O)c2c(F)nc(CNc3n[nH]c4cc(Cl)c(C(C)(C)C)cc34)n2C)[C@@H](F)C1` [US12065430, Example 75]: the pIC50 was 7.80.

In the case of `C=CC(=O)N1C[C@H](NC(=O)c2c(Cl)nc(CNc3n[nH]c4cc(Cl)c(C(C)(C)C)cc34)n2C)[C@@H](F)C1` [US12065430, Example 76], the pIC50 was 7.89.

In turn, `C=CC(=O)N1CC[C@@H](N(C)C(=O)c2cnc(CNc3n[nH]c4cc(Cl)c(C(C)(C)C)cc34)n2C)C1` [US12065430, Example 77] showed a pIC50 of 6.85.

As to `C=CC(=O)N1C[C@@H](C)[C@@H](NC(=O)c2c(Cl)nc(CNc3n[nH]c4cc(Cl)c(C(C)(C)C)cc34)n2C)C1` [US12065430, Example 78], the negative-log IC50 (pIC50) was 7.70.

`C/C=C/C(=O)N1CC(NC(=O)c2c(C)nc(CNc3n[nH]c4cc(Cl)c(C(C)(C)C)cc34)n2C(C)C)C1` [US12065430, Example 81] had a negative-log IC50 (pIC50) of 5.58.

On to `CC#CC(=O)N1CC(NC(=O)c2c(C)nc(CNc3n[nH]c4cc(Cl)c(C(C)(C)C)cc34)n2C(C)C)C1` [US12065430, Example 82], for which the pIC50 was 6.68.

For `Cc1nc(CNc2n[nH]c3cc(Cl)c(C(C)(C)C)cc23)n(C(C)C)c1C(=O)NC1CN(C(=O)/C=C\Cl)C1` [US12065430, Example 83], the pIC50 is 5.63.

Take `CC(C)n1c(CNc2n[nH]c3cc(Cl)c(C(C)(C)C)cc23)nc(C(F)F)c1C(=O)NC1CN(C(=O)/C=C/CN(C)C)C1` [US12065430, Example 84]: the pIC50 is 7.20.

Consider `C=CS(=O)(=O)N1CC(NC(=O)c2c(C)nc(CNc3n[nH]c4cc(Cl)c(C(C)(C)C)cc34)n2C(C)C)C1` [US12065430, Example 86], for which the pIC50 was 7.24.

Regarding `C=CC(=O)N1CC(NC(=O)c2c(Cl)nc(CNc3n[nH]c4cc(Cl)c(C(C)(C)C)cc34)n2CCCC)C1` [US12065430, Example 87], the negative logarithm of the IC50 (pIC50) is 7.85.

Regarding `C=CC(=O)N1CC(NC(=O)c2c(Cl)nc(CNc3n[nH]c4cc(Cl)c(C(C)(C)C)cc34)n2CC(C)C)C1` [US12065430, Example 89], the negative-log IC50 (pIC50) was 8.15.

Molecule `C=CC(=O)N1CC(NC(=O)c2c(Cl)nc(CNc3n[nH]c4cc(Cl)c(C(C)(C)C)cc34)n2CCOC)C1` [US12065430, Example 90] showed a pIC50 of 8.22.

Consider `C=CC(=O)N1CC(NC(=O)c2c(C(F)F)nc(CNc3n[nH]c4cc(Cl)c(C(C)(C)C)cc34)n2C2CCN(C)C2)C1` (stereo not drawn) [US12065430, Example 91], for which the pIC50 is 8.15.

As to `C=CC(=O)N1CC(NC(=O)c2c(C(F)F)nc(CNc3n[nH]c4cc(Cl)c(C(C)(C)C)cc34)n2C2CCN(CC)C2)C1` (stereo not drawn) [US12065430, Example 92], the pIC50 is 8.00.

Consider `C=CC(=O)N1CC(NC(=O)c2c(C(F)F)nc(CNc3n[nH]c4cc(Cl)c(C(C)(C)C)cc34)n2C2CCN(C(C)C)C2)C1` (stereo not drawn) [US12065430, Example 93], for which the pIC50 was 8.22.

Consider `C=CC(=O)N1CC(NC(=O)c2c(Cl)nc(CNc3n[nH]c4cc(Cl)c(C(C)(C)C)cc34)n2-c2ccccn2)C1` [US12065430, Example 94], for which the pIC50 was 6.93.

In turn, `C=CC(=O)N1CC(NC(=O)c2c(C(F)F)nc(CNc3n[nH]c4cc(Cl)c(C(C)(C)C)cc34)n2CC2CCCN2C(C)C)C1` (stereo not drawn) [US12065430, Example 95] gave a pIC50 of 7.36.

Take `C=CC(=O)N1CC(NC(=O)c2c(C(F)F)nc(CNc3n[nH]c4cc(Cl)c(C(C)(C)C)cc34)n2C2CCN(C(C)=O)C2)C1` (stereo not drawn) [US12065430, Example 96]: the negative logarithm of the IC50 (pIC50) was 8.40.

For `C=CC(=O)N1CC(NC(=O)c2c(Cl)nc(CNc3n[nH]c4cc(Cl)c(C(C)(C)C)cc34)n2C2CC=CC2)C1` [US12065430, Example 98], the pIC50 was 8.15.

For the molecule `C=CC(=O)N1CC(NC(=O)c2c(Cl)nc(CNc3n[nH]c4cc(Cl)c(C(C)(C)C)cc34)n2[C@@H]2C[C@@H](O)[C@@H](O)C2)C1` [US12065430, Example 99], the pIC50 was 8.15.

`C=CC(=O)N1CC(NC(=O)c2c(Cl)nc(CNc3n[nH]c4cc(Cl)c(C(C)(C)C)cc34)n2CC(F)F)C1` [US12065430, Example 100] showed a negative logarithm of the IC50 (pIC50) of 7.85.

`C=CC(=O)N1CC(NC(=O)c2c(Cl)nc(CNc3n[nH]c4cc(Cl)c(C(C)(C)C)cc34)n2C2CCOCC2)C1` [US12065430, Example 101] gave a pIC50 of 8.15.

In turn, `C=CC(=O)N1CC(NC(=O)c2c(Cl)nc(CNc3n[nH]c4cc(Cl)c(C(C)(C)C)cc34)n2C2CCN(C)CC2)C1` [US12065430, Example 103] gave a negative-log IC50 (pIC50) of 8.30.

In turn, `C=CC(=O)N1CC(NC(=O)c2c(Cl)nc(CNc3n[nH]c4cc(Cl)c(C(C)(C)C)cc34)n2C2CCCOC2)C1` (stereo not drawn) [US12065430, Example 104] showed a pIC50 of 8.05.

Turning to `C=CC(=O)N1CC(NC(=O)c2c(Cl)nc(CNc3n[nH]c4cc(Cl)c(C(C)(C)C)cc34)n2C2CCCC2)C1` [US12065430, Example 105], the negative logarithm of the IC50 (pIC50) was 8.10.

In turn, `C=CC(=O)N1CC(NC(=O)c2c(Cl)nc(CNc3n[nH]c4cc(Cl)c(C(C)(C)C)cc34)n2C2CN(C(=O)OC(C)(C)C)C2)C1` [US12065430, Example 106] had a negative-log IC50 (pIC50) of 8.10.

Regarding `C=CC(=O)N1CC(NC(=O)c2c(Cl)nc(CNc3n[nH]c4cc(Cl)c(C(C)(C)C)cc34)n2C2CN(C(C)=O)C2)C1` [US12065430, Example 108], the pIC50 was 8.05.

Take `C=CC(=O)N1CC(NC(=O)c2c(Cl)nc(CNc3n[nH]c4cc(Cl)c(C(C)(C)C)cc34)n2C2CCCCC2)C1` [US12065430, Example 109]: the pIC50 is 7.64.

`C=CC(=O)N1CC(NC(=O)c2c(Cl)nc(CNc3n[nH]c4cc(Cl)c(C(C)(C)C)cc34)n2CC2CCCC2)C1` [US12065430, Example 110] had a pIC50 of 8.05.

Take `C=CC(=O)N1CC(NC(=O)c2c(Cl)nc(CNc3n[nH]c4cc(Cl)c(C(C)(C)C)cc34)n2[C@H]2C[C@H](C)CC[C@H]2C(C)C)C1` [US12065430, Example 111]: the negative logarithm of the IC50 (pIC50) is 7.82.

`C=CC(=O)N1CC(NC(=O)c2c(Cl)nc(CNc3n[nH]c4cc(Cl)c(C(C)(C)C)cc34)n2C2CCCN(CC(F)F)C2)C1` (stereo not drawn) [US12065430, Example 117] had a pIC50 of 8.05.

The molecule `C=CC(=O)N1CC(NC(=O)c2c(Cl)nc(CNc3n[nH]c4cc(Cl)c(C(C)(C)C)cc34)n2C2CCCN(C)C2)C1` (stereo not drawn) [US12065430, Example 118] gave a pIC50 of 8.30.

On to `C=CC(=O)N1CC(NC(=O)c2c(Cl)nc(CNc3n[nH]c4cc(Cl)c(C(C)(C)C)cc34)n2[C@@H]2CCN(CCOC)C2)C1` [US12065430, Example 119], for which the negative logarithm of the IC50 (pIC50) is 7.96.
